Assay results as given in PMC8148049, “Fluorogenic Trp(redBODIPY) cyclopeptide targeting keratin 1 for imaging of aggressive carcinomas” (Chemical Science, 2019).
Values joined by “and” are separate entries in the source; they are usually repeats but may differ in a detail not shown here. Identical values can stand only once. *1 amine or outer side, *2 acyl side, *3 side chain or, on linkers, in order; H or OH if unused. Where a SMILES comes first, the peptide text is derived from it. [ ]: non-standard residue; d: D form. X1 = CC1=CC(C)=[N+]2C1=C(c1cccc(-c3[nH]c4ccccc4c3C[C@H](N[*:1])C(=O)[*:2])c1)c1ccc(-c3ccc(C)s3)n1[B-]2(F)F; Nle = CCCC[C@H](N)C(=O)O

Key:
[1] = system: Protease XIV (from Streptomyces Griseus); assay: Protease stability assay (protease cocktail, HPLC-MS monitoring); assay type: in vitro ADME; conditions: Protease XIV 5 μg mL-1 in PBS-citrate buffer pH 7.1, 37 °C, peptide 500 µM (from 5 mM DMSO stock), HPLC-MS with detection at 280 nm
Method: Given that proteases are abundant enzymes at tumour sites, we also investigated the potential degradation of the cyclopeptides 2 (unlabelled) and 8 [Trp(redBODIPY)-labelled] when subjected to strong proteolytic environments. We incubated both peptides with a commercially available protease cocktail at 37 °C and recorded their chemical stability by HPLC-MS over time. […] We also observed that the incorporation of the amino acid Trp(redBODIPY) into the structure of the cyclopeptide 2 slightly augmented its resistance to proteases, likely due to the inherent properties of unnatural amino acids.
5. Experimental Protocols for Biological Assays […]
(§1) Protease stability assays
(§2) The chemical stability of the peptides was assessed in the presence of Protease XIV (from Streptomyces Griseus) in PBS-citrate buffer (pH 7.1) at 37 °C. First, a stock of 5 μg mL-1 of the protease cocktail in the buffer was prepared. Initially, a concentrated 1 mg mL−1 solution was obtained by weighing 1.1 mg of the protease and dissolving it in 1.1 mL of buffer, and afterwards diluting it down to the desired 5 μg mL-1 stock. Then, 5 µL of the peptides (5 mM in DMSO) were diluted with 45 µL of the protease cocktail to obtain a final peptide concentration of 500 µM. Peptides were vortexed, covered in aluminium foil and shaken at 37°C for 2 h or 24 h. Aliquots (25 µL) were taken, proteins were precipitated by microcentrifugation at 4°C, and supernatants were collected for HPLC-MS with detection at 280 nm. […]

HeLa cells = assay: Cell viability assay (TACS MTT Cell Proliferation assay); assay type: cell-based; conditions: different concentrations of peptide, 2 h at 37 °C, vs untreated control, means ± s.d. (n = 4), p > 0.05
Method: 5. Experimental Protocols for Biological Assays
Spectroscopic characterisation
Spectral properties were measured in a BioTek Cytation 3 spectrophotometer. Absorbance and emission spectra were determined in the range of 400–700 nm (every 1 nm) at the indicated concentrations. Environmental sensitivity was measured by comparing the emission in PBS or in presence of phosphatidylcholine: cholesterol (7:1) liposomes (3.75 mg mL-1 PC).
Fluorescence emission was determined on a 384-well plate using a BioTek Cytation 3 spectrophotometer as indicated (excitation at 520 nm, 530-700 nm emission range, every 1 […]
as §1
as §2, with “h.” for “h. Aliquots (25 µL) were taken, proteins were precipitated by microcentrifugation at 4°C, and supernatants were collected for HPLC-MS with detection at 280 nm.”
Cell viability of HeLa cells was determined using the TACS® MTT Cell Proliferation assay (Trevigen). […]

Structure (SMILES)	chemical stability 2 h [1]	chemical stability 24 h [1]	fluorescence increase in hydrophobic medium (fluorogenic)	Viability of HeLa cells (HeLa cells)
CCCC[C@@H]1NC(=O)[C@H](Cc2c[nH]c3ccccc23)NC(=O)[C@H](CC(C)C)NC(=O)[C@H](Cc2ccccc2)NC(=O)[C@@H](CCCCN)NC(=O)[C@H](CCC(N)=O)NC(=O)[C@H](Cc2ccc(O)cc2)NC(=O)[C@H](C)NC(=O)[C@H](C)NC(=O)[C@H](CCC(=O)O)NC1=O [compound 2, reference compound] (cyclo(AAYQ[dK]FLW[Nle]E))	65%	50%	–	–
CCCC[C@@H]1NC(=O)[C@H](Cc2c(-c3cccc(C4=C5C(C)=CC(C)=[N+]5[B-](F)(F)n5c4ccc5-c4ccc(C)s4)c3)[nH]c3ccccc23)NC(=O)[C@H](CC(C)C)NC(=O)[C@H](Cc2ccccc2)NC(=O)[C@@H](CCCCN)NC(=O)[C@H](CCC(N)=O)NC(=O)[C@H](Cc2ccc(O)cc2)NC(=O)[C@H](C)NC(=O)[C@H](C)NC(=O)[C@H](CCC(=O)O)NC1=O [compound 8] (cyclo(AAYQ[dK]FL[X1][Nle]E))	> 95%	82%	< 70 fold and 70 fold	Non-significant differences
